Key:
Type in all cases: cell-based, human
[1] = system: HepG2 cells; experiment: Flow cytometry cell cycle analysis (PI staining); conditions: HepG2, 10.50 µM, 24 h
Procedure: Compound 12I, achieved notable cytotoxic and VEGFR-2 inhibitory potencies was further studied mechanistically for cell cycle progression and induction of apoptosis in HepG2 cells. Cell cycle process was analysed after exposure of HepG2 cells to 12I with a concentration of 10.50 µM for 24 h.
This assay was applied using propidium iodide (PI) staining in accordance with the comprehensive description in Supplementary data[34]^,[35] […]
3. Flow cytometry analysis for cell cycle
To determine the role of the synthesized compounds in cell cycle distribution, cell cycle analysis was performed using propidium iodide (PI) staining and flow cytometry analysis for compound
12l. Flow Cytometry Kit for Cell Cycle Analysis (ab139418_Propidium Iodide Flow Cytometry Kit/BD) was used in this test. HepG2 cells were treated with compound 12l (10.50 µM) for 24 h.
Then, the cells were fixed in 70% ethanol at 4 °C for 12 h. After that, the cells were washed with cold PBS, incubated with 100 μl RNase A at 37 °C for 30 min, and stained with 400 μl PI in the dark at room temperature for further 30 min. The stained cells were measured using Epics XL-MCL™ Flow Cytometer (Beckman Coulter), and the data were analyzed using Flowing software (version 2.5.1, Turku Centre for Biotechnology, Turku, Finland) .

[2] = system: Caspase-3; experiment: Western blot, caspase-3 level in HepG2 cells; conditions: HepG2, 10.50 µM, 24 h
Procedure: Caspase-3 has a key role in apoptosis initiation and execution[26]^,[27]. The western blot technique was used to investigate the effect of compound 12 l, the most promising member, on the caspase-3 level. HepG2 cells were treated with 12l (10.50 µM) for 24 h.
The western blot technique was applied in accordance with the comprehensive description in Supplementary data[38–40]
4. Flow cytometry analysis for apoptosis
Flow cytometry cell apoptosis analysis was used to investigate the apoptotic effect of the synthesized compounds. […] The stained cells were measured using Epics XL-MCL™ Flow Cytometer and analyzed using Flowing software.
The proteins expression of cleaved caspase‐3, BAX, and Bcl‐2 were determined using Western blot analysis. […]
Then cells were lysed in 250 μL precold lysis buffer (pH 7.4: Tris‐Base [10 mM], NaCl [100 mM], ethylenediaminetetraacetic acid [EDTA, 25 mM], ethylene glycol bis (2‐aminoethyl) tetraacetic acid [EGTA, 25 mM], 1% [v/v] NP‐40, and 1% [v/v] Triton X‐100) supplemented with 1:350 protease:phosphatase inhibitors cocktail (Sigma). […] Total protein concentrations in the supernatant were determined colorimetrically using the Pierce 660 nm Protein Assay method (Thermo Fisher Scientific, Rockford, IL), with BSA as the standard. […]

[3] = system: WI-38 cell line; experiment: In vitro cytotoxicity against normal cell line (MTT); design: LogIC50 best-fit value, WI-38: unit not given here
Excerpt: […]. Such values were very high in comparison to the corresponding values on cancer cell lines, which reflect high safety profile of the tested candidates towards normal cell lines.
MTT assay protocol. This method was applied in accordance with the comprehensive description in Supplementary data. […]
5 Raw data of cytotoxity and VEGFR -2 assay […]
Experimental of biological testing
1. In vitro anti-proliferative activity
MTT assay protocol was applied to assess the anti-proliferative activity of the synthesized compounds. Two human cancer cell lines (MCF-7 and HepG-2) and one normal cell line (WI-38) were used in this test. At first, the cell lines were cultured in RPMI -1640 medium with 10% fetal bovine serum. Antibiotics (100 units/ml penicillin and100 µg/ml streptomycin ) were added at 37 °C in a 5% CO2 incubator. The cell lines were seeded in a 96-well plate at a density of 1.0 x 10^4 cells / well at 37 °C for 24 h under 5% CO2. After incubation, the cells were treated with different […]
concentration of the synthesized compounds and incubated for 24 h. After 24 h of drug treatment, 20 µl of MTT solution at 5mg/ml was added and incubated for 4 h. Dimethyl sulfoxide (DMSO) in volume of 100 µl was added into each well to dissolve the purple formazan formed. The colorimetric assay was measured and recorded at absorbance of 570 nm using a plate reader (EXL 800, USA). The relative cell viability in percentage was calculated as (A570 of treated samples/A570 of untreated sample) X 100. […]

[4] = supplement raw data, dose-response curve fit

Cc1ccc2oc(SCC(=O)Nc3ccc(C(=O)Nc4cccc(Cl)c4)cc3)nc2c1 [Compound 12l, N-(3-Chlorophenyl)-4–(2-((5-methylbenzo[d]oxazol-2-yl)thio)acetamido)benzamide]
Cell cycle distribution %S [1]: 38.68%
Cell cycle distribution % G2/M ([1]; listed as 12I): 32.10%
Cell cycle distribution %Sub-G1 (Pre-G1) ([1]; listed as 12I): 0.79%
Cell cycle distribution % G2/M ([1]; listed as 12 l): 32.10 ± 181 %
Cell cycle distribution %G1 ([1]; listed as 12 l): 28.43 ± 0.37 %
Cell cycle distribution %S ([1]; listed as 12 l): 38.68 ± 1.81 %
Cell cycle distribution %Sub-G1 (Pre-G1) ([1]; listed as 12 l): 0.79 ± 0.25%
Protein expression (normalized to β-actin) Caspase-3 ([2]; control = 1.00): 2.98 ± 0.13
Caspase-3 level increase ([2]; versus control): 2.98 fold
IC50 ([3]; WI-38, normal human lung cell line, MTT): 37.8 µM
HillSlope best-fit value, WI-38 [3, 4]: -0.4502
LogIC50 best-fit value, WI-38 [3, 4]: 1.577

— paper PMC9327782, “Benzoxazole derivatives as new VEGFR-2 inhibitors and apoptosis inducers: design, synthesis, in silico studies, and antiproliferative evaluation” (Journal of Enzyme Inhibition and Medicinal Chemistry, 2022)
